# Data: the Kinase Knowledgebase extract (Sharma et al. 2016)
# Molecular target: MAPK14 (UniProt Q16539)
# Assay: p38 alpha Inhibition
# Details: not given
# Chain of MAPK14 (Q16539 whole entry, looked up): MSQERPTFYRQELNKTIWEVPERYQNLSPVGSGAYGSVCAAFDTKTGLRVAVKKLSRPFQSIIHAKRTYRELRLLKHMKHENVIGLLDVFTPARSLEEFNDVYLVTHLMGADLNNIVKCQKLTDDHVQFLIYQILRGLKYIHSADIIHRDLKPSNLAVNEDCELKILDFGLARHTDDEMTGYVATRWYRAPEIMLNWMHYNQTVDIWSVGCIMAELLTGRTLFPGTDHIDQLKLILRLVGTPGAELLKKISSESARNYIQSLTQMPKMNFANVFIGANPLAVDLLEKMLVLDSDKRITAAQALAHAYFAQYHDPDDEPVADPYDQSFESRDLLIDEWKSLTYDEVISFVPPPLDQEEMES
row,SMILES,IC50 [nM]
1,Clc1ccccc1-c1nc(Nc2ccncc2)c2ccccc2n1,170
2,Fc1ccc(-c2nc(Nc3ccncc3)c3ccccc3n2)cc1,439
3,c1ccc(-c2nc(NCc3ccncc3)c3ccccc3n2)cc1,1200
4,Cc1ccccc1-c1nc(Nc2ccncc2)c2ccccc2n1,345
5,Nc1ccc2nc(-c3ccccc3F)nc(Nc3ccncc3)c2c1,168
6,Fc1ccccc1-c1nc(Nc2ccncc2)c2ccccc2n1,114
7,Brc1ccccc1-c1nc(Nc2ccncc2)c2ccccc2n1,285

# Other lines, results leading:
row,IC50 [nM],SMILES
1,457,c1ccc(-c2nc(Nc3ccncc3)c3ccccc3n2)cc1
2,578,COc1cccc(Nc2nc(-c3ccccc3)nc3ccccc23)c1

# Same assay, conditions: concentration not given here
row,SMILES,inhibition [%]
1,Clc1ccccc1-c1nc(Nc2ccncc2)c2ccccc2n1,100
2,CC(C)N(c1ccncc1)c1nc(-c2ccccc2)nc2ccccc12,69
3,Nc1ccc2c(Nc3ccncc3)nc(-c3ccccc3F)nc2c1,94
4,c1ccc(-c2nc(Nc3cccc4[nH]ccc34)c3ccccc3n2)cc1,72
5,Fc1ccc(F)c(CNc2nc(-c3ccccc3)nc3ccccc23)c1,63
6,CN(C)c1ccc(CNc2nc(-c3ccccc3)nc3ccccc23)cc1,25
7,Fc1ccccc1-c1nc(Nc2ccncc2)c2cccnc2n1,97
8,Fc1ccc(-c2nc(Nc3ccncc3)c3ccccc3n2)cc1,92
9,O=[N+]([O-])c1ccc2nc(-c3ccccc3F)nc(Nc3ccncc3)c2c1,91
10,Clc1ccc(-c2nc(NCc3ccncc3)c3ccccc3n2)cc1,51
11,COc1ccc(CNc2ccc3nc(-c4ccccc4F)nc(Nc4ccncc4)c3c2)cc1,96
12,N#Cc1cccc(Nc2nc(-c3ccccc3)nc3ccccc23)c1,13
13,COc1ccc(N(c2ccncc2)c2nc(-c3ccccc3)nc3ccccc23)cc1,47
14,COc1ccc(-c2nc(Nc3ccncc3)c3ccccc3n2)cc1,5
15,Clc1cccc(-c2nc(NCc3ccccc3)c3ccccc3n2)c1,37
16,c1ccc(-c2nc(NCc3ccncc3)c3ccccc3n2)cc1,64
17,Cc1ccccc1-c1nc(Nc2ccncc2)c2ccccc2n1,99
18,c1ccc(Nc2nc(-c3ccccc3)nc3ccccc23)cc1,45
19,Oc1cccc(Nc2nc(-c3ccccc3)nc3ccccc23)c1,19
20,c1ccc(-c2nc(NCc3cccnc3)c3ccccc3n2)cc1,54
21,c1ccc(-c2nc(Nc3ccncn3)c3ccccc3n2)cc1,97
22,Fc1cccc(-c2nc(Nc3ccncc3)c3ccccc3n2)c1,68
23,Oc1ccccc1Nc1nc(-c2ccccc2)nc2ccccc12,28
24,Fc1ccccc1-c1nc(Nc2ccncc2)c2ccccc2n1,99
25,Brc1ccccc1-c1nc(Nc2ccncc2)c2ccccc2n1,99
26,COc1cccc(CNc2ccc3nc(-c4ccccc4F)nc(Nc4ccncc4)c3c2)c1,96
27,CCC(C)c1ccc(Nc2nc(-c3ccccc3)nc3ccccc23)cc1 (stereo not drawn),10

# The next lines start with the values.
row,inhibition [%],SMILES
1,85,Clc1cccc(Cl)c1-c1nc(Nc2ccncc2)c2ccccc2n1
2,16,c1ccc(-c2nc(NCCc3ccccn3)c3ccccc3n2)cc1
3,95,COc1cccc(Nc2nc(-c3ccccc3)nc3ccccc23)c1
4,97,COc1cc2nc(-c3ccccc3Cl)nc(Nc3ccncc3)c2cc1OC
5,16,COc1ccc(Nc2nc(-c3ccccc3)nc3ccccc23)cc1
6,70,c1ccc(-c2nc(Nc3ccc4[nH]ccc4c3)c3ccccc3n2)cc1
7,63,Oc1ccc(Nc2nc(-c3ccccc3)nc3ccccc23)cc1
8,97,Fc1cccc(F)c1-c1nc(Nc2ccncc2)c2ccccc2n1
9,34,OCCc1ccc(Nc2nc(-c3ccccc3)nc3ccccc23)cc1
10,3,c1ccc(-c2nc(Nc3ncccn3)c3ccccc3n2)cc1
11,37,COc1ccccc1Nc1nc(-c2ccccc2)nc2ccccc12
12,45,c1ccc(-c2nc(Nc3cccnc3)c3ccccc3n2)cc1
